# Assay results from patent publication US20230103631A1, “PEPTIDES AS SELECTIVE GIP RECEPTOR AGONISTS” (Sanofi, priority 2020, published 2023).
# *1 amine or outer side, *2 acyl side, *3 side chain or, on linkers, in order; H or OH if unused. Where a SMILES comes first, the peptide text is derived from it. Side-chain parts run from the residue outwards. [ ]: non-standard residue; d: D form. The star is where a group is joined. C18 diacid = O=C(O)CCCCCCCCCCCCCCCCC(=O)*; γGlu = O=C(O)[C@H](CCC(=O)[*:2])N[*:1]; AEEA = NCCOCCOCC(=O)O; Aib = CC(C)(N)C(=O)O
# How the values were obtained:
# Type in all cases: in vivo
# [1] = Pharmacokinetic evaluation in mice; conditions: female, C57Bl/6, mouse, plasma
# Method: (§1) Compounds were administered in a suitable buffer system, e.g. PBS buffer solution at pH7.4 or DPBS solution at concentrations of 0.05, 0.1, 0.5 or 1 mg/ml depending on dose, species and administration volume.
# Female C57Bl/6 mice were dosed 0.25 mg/kg, 0.5 mg/kg or 1 mg/kg intravenously (i.v.) or subcutaneously (s.c.). The mice were sacrificed, and blood samples were collected after 0.08, 0.25, 0.5, 1, 2, 4, 8, 24, 32, and 48 h post i.v. application and 0.25, 0.5, 1, 2, 4, 8, 24, 32, and 48 h post s.c. application, respectively. Plasma samples were analyzed after protein precipitation via liquid chromatography mass spectrometry (LC/MS). PK parameters and half-life were calculated using Phoenix-WinNonlin 8.1 using a non-compartmental model and linear trapezoidal interpolation calculation.
# (§2) Pharmacokinetic profiles were determined as described in Methods.
# [2] = Pharmacokinetic evaluation in monkeys; conditions: male, cynomolgus monkey, plasma
# Method: as §1
# Male cynomolgus monkeys were dosed 0.1 mg/kg intravenously (i.v.) or subcutaneously (s.c.). Blood samples were collected after 0.083, 0.25, 0.5, 1, 2, 4, 8, 24, 32, 48, and 72 h post i.v. application and 0.5, 1, 2, 4, 8, 24, 48, 72, and 96 h post s.c. application, respectively. Plasma samples were analyzed after protein precipitation via liquid chromatography mass spectrometry (LC/MS). PK parameters and half-life were calculated using Phoenix-WinNonlin 8.1 using a non-compartmental model and linear trapezoidal interpolation calculation.
# as §2
# [3] = Pharmacokinetic evaluation in minipigs; conditions: female, Gottingen, minipig, plasma
# C57Bl/6 mice = assay: Intraperitoneal glucose tolerance test (ipGTT) after s.c. treatment; conditions: for Incremental blood glucose concentration AUCi / Blood glucose concentration AUC: mean ± SEM; for Incremental blood glucose concentration AUCi: vehicle +4.93 ± 0.324; for Blood glucose concentration AUC: vehicle +22.15 ± 0.662
# Method: Healthy, normoglycemic male C57Bl/6NCrl mice were ordered in an age of 9-10 weeks with an approximate body weight (BW) of 24-26 g at Charles River Laboratories Deutschland GmbH, 97633 Sulzfeld, Germany. Mice were shipped grouped housed (N=4 per cage), acclimatized for one week and remained grouped housed throughout the entire study. Mice were housed under vivarium conditions that included a 12 h light/dark cycle (light phase 06:00 AM-06:00 PM), mean room temperature of 22±2° C. and a relative mean humidity of 55±10%. All animals had free access to food (Ssniff R/M-H diet) and water prior to study start.
# The primary objective of the study was to investigate the compound-induced lowering of the blood glucose excursion and improvement of glucose tolerance in a mouse ipGTT setting and therefore the primary parameters included blood glucose, delta blood glucose (normalized to the time point just prior to the i.p. glucose challenge, t=0 h) and their respective calculated area under curve (AUC) values. The study was performed as an acute, single dosing study with 6 groups and the male animals were randomly divided to groups of 7-8 mice per group. Dose-dependent pharmacodynamic blood glucose lowering efficacy of the GIPR agonist was analyzed with s.c. injections 6 h before the i.p. glucose load in the dose range from 3 up to 100 nmol/kg and compared to the vehicle group as well as the semaglutide positive control at a dose of 10 nmol/kg.
# In more detail, mice were fed overnight and on the following morning brought to the lab with food removed but ad libitum access to water. Blood samplings (5 μl) were performed at: −6.5, −0.5, 0, 0.17, 0.5, 1, 1.5, 2 and 3 h before and after the glucose bolus of 1 g glucose per kg BW i.p. given at time point t=0 h. On time point t=0.17 h an additional K-EDTA plasma sample from 60-80 μl blood was taken for plasma insulin analysis. Blood was withdrawn from the tip of the tail. The GIPR agonist and semaglutide were dissolved in 10 mM phosphate buffer pH 7.4 with 2.3% glycerol and 0.01% polysorbat 20 (vehicle) and s.c. treatment was performed −6 h before the glucose load (t=0 h) using an injection volume of 5 ml/kg. The injection solutions were freshly prepared prior to the experiment using sterile filtered vehicle solution.
# Blood glucose was determined enzymatically (Gluco-quant® Glucose/HK kit on Roche/Hitachi 912). Plasma insulin was determined using a mouse/rat insulin sandwich immunoassay kit from Meso Scale Discovery.
# All data were collected using Microsoft Excel. None of the data were collected online. The results are expressed as means±standard error of the mean (SEM). As primary study parameters, blood glucose, baseline (time point t=0 h) subtracted delta blood glucose and their respective calculated area under curve (AUC) values were determined. The respective AUC data were calculated using the trapezoid rule for the time period t=0 h until t=2 h.
# The statistical analysis of the ipGTT blood glucose excursion data response following subcutaneous compound or vehicle treatment was performed on the calculated AUC values of blood glucose raw data as well as the calculated AUC values for baseline subtracted delta blood glucose data. In a first step the Levene's test was used to test for equality of variances between groups. Where Levene's test was significant (p s 0.05), a rank transformation of the calculated AUC data was applied to stabilize the variances before ANOVA analysis was conducted. Where Levene's test was not significant (p>0.05) ANOVA was conducted without prior rank transformation. In a second step a One-way ANOVA analysis for factor treatment followed by Dunnett's multiple comparisons test vs. vehicle group was used to test for statistical differences. Different levels of significance were defined as *=p<0.05, **=p<0.001, ***=p<0.0001. All analyses were performed using SAS (version 9.4) under Linux via the interface software EverSt@t V6.1. […]
# [4] = 3 nmol/kg s.c. 6 h before i.p. glucose load
# [5] = 10 nmol/kg s.c. 6 h before i.p. glucose load
# [6] = 30 nmol/kg s.c. 6 h before i.p. glucose load
# [7] = 100 nmol/kg s.c. 6 h before i.p. glucose load
structure (smiles),measurement,setting,value
"CC[C@H](C)[C@H](NC(=O)[C@H](Cc1ccccc1)NC(=O)[C@H](CCC(=O)O)NC(=O)[C@H](CCC(=O)O)NC(=O)[C@H](CCC(N)=O)NC(=O)[C@H](Cc1c[nH]cn1)NC(=O)[C@@H](NC(=O)[C@H](CCCNC(=N)N)NC(=O)[C@H](CC(=O)O)NC(=O)[C@H](CCCCNC(=O)COCCOCCNC(=O)COCCOCCNC(=O)CC[C@H](NC(=O)CCCCCCCCCCCCCCCCC(=O)O)C(=O)O)NC(=O)C(C)(C)NC(=O)[C@@H](NC(=O)[C@H](CO)NC(=O)[C@H](CC(C)C)NC(=O)[C@H](CC(=O)O)NC(=O)[C@H](CO)NC(=O)[C@@H](NC(=O)[C@H](Cc1ccccc1)NC(=O)[C@@H](NC(=O)CNC(=O)[C@H](CCC(=O)O)NC(=O)C(C)(C)NC(=O)[C@@H](N)Cc1ccc(O)cc1)[C@@H](C)O)[C@@H](C)CC)[C@@H](C)CC)[C@@H](C)CC)C(=O)N[C@@H](CCC(=O)O)C(=O)N[C@@H](Cc1c[nH]c2ccccc12)C(=O)N[C@@H](CC(C)C)C(=O)N[C@@H](CC(C)C)C(=O)N[C@@H](C)C(=O)N[C@@H](CCC(N)=O)C(=O)NCC(=O)N1CCC[C@H]1C(=O)N[C@@H](CO)C(=O)N[C@@H](CO)C(=O)NCC(=O)N[C@@H](C)C(=O)N1CCC[C@H]1C(=O)N1CCC[C@H]1C(=O)N1CCC[C@H]1C(=O)N[C@@H](CO)C(N)=O [SEQ ID NO: 9, H2N-Y-Aib-E-G-T-F-I-S-D-I-S-I-Aib-K[{AEEA}2-gGlu-C18OH]-DRIHQEEFIEWILAQGPSSGAPPPS-NH2] (H-Y[Aib]EGTFISDLSI[Aib]K([AEEA-AEEA-γGlu-C18 diacid])DRIHQEEFIEWLLAQGPSSGAPPPS-NH2)",AUC(0-t),"[1]; iv, 0.25 mg/kg i.v.",25.7 µg·h/mL
same,Cmax,"[1]; iv, 0.25 mg/kg i.v.",3920 ng/mL
same,half-life,"[1]; iv, 0.25 mg/kg i.v.",8 h
same,clearance,"[1]; iv, 0.25 mg/kg i.v., read-out: CI (converted)",230 mL/day/kg
same,AUC(0-t),"[1]; sc, 0.5 mg/kg s.c.",42.2 µg·h/mL
same,Cmax,"[1]; sc, 0.5 mg/kg s.c.",2190 ng/mL
same,bioavailability,"[1]; sc, 0.5 mg/kg s.c.",82%
same,half-life,"[1]; sc, 0.5 mg/kg s.c.",7.3 h
same,AUC(0-t),"[2]; iv, 0.1 mg/kg i.v.",149 µg·h/mL
same,Cmax,"[2]; iv, 0.1 mg/kg i.v.",6740 ng/mL
same,half-life,"[2]; iv, 0.1 mg/kg i.v.",51.4 h
same,clearance,"[2]; iv, 0.1 mg/kg i.v., read-out: CI (converted)",10.7 mL/day/kg
same,AUC(0-t),"[2]; sc, 0.1 mg/kg s.c.",122 µg·h/mL
same,Cmax,"[2]; sc, 0.1 mg/kg s.c.",1800 ng/mL
same,bioavailability,"[2]; sc, 0.1 mg/kg s.c.",83%
same,half-life,"[2]; sc, 0.1 mg/kg s.c.",58.4 h
same,AUC(0-t),"[3]; iv, 0.05 mg/kg i.v.",177 µg·h/mL
same,Cmax,"[3]; iv, 0.05 mg/kg i.v.",5530 ng/mL
same,half-life,"[3]; iv, 0.05 mg/kg i.v.",75.8 h
same,clearance,"[3]; iv, 0.05 mg/kg i.v., read-out: CI (converted)",3.84 mL/day/kg
same,AUC(0-t),"[3]; sc, 0.1 mg/kg s.c.",228 µg·h/mL
same,Cmax,"[3]; sc, 0.1 mg/kg s.c.",3080 ng/mL
same,bioavailability,"[3]; sc, 0.1 mg/kg s.c.",64%
same,Incremental blood glucose concentration AUCi,C57Bl/6 mice; [4],+3.41 ± 0.520 mmol/L* 0-2 h
same,Blood glucose concentration AUC,C57Bl/6 mice; [4],+21.07 ± 0.544 mmol/L* 0-2 h
same,Incremental blood glucose concentration AUCi,C57Bl/6 mice; [5],+3.33 ± 0.210 mmol/L* 0-2 h
same,Blood glucose concentration AUC,C57Bl/6 mice; [5],+19.28 ± 0.518 mmol/L* 0-2 h
same,Incremental blood glucose concentration AUCi,C57Bl/6 mice; [6],+2.76 ± 0.268 mmol/L* 0-2 h
same,Blood glucose concentration AUC,C57Bl/6 mice; [6],+18.20 ± 0.662 mmol/L* 0-2 h
same,Incremental blood glucose concentration AUCi,C57Bl/6 mice; [7],+1.90 ± 0.158 mmol/L* 0-2 h
same,Blood glucose concentration AUC,C57Bl/6 mice; [7],+14.81 ± 0.533 mmol/L* 0-2 h
same,i.p. glucose tolerance compared to the vehicle group,"C57Bl/6 mice; single s.c. dose 3-100 nmol/kg, ipGTT in C57Bl/6 mice",significant and dose-dependent improvement
same,minimal effective dose (improvement of i.p. glucose tolerance),"C57Bl/6 mice; single s.c. dose, ipGTT in C57Bl/6 mice",3 to 10 nmol/kg
